According to patent US11230526B1, “Cylcoalkenyl derivatives useful as agonists of the GPR120 and/or GPR40 receptors” (Janssen Pharmaceutica NV, priority 2018, dated 2022):

Legend:
Assay type in all cases: cell-based
Human GPR120 short form [1] = biological target: T1, Human GPR120 short form (Homo sapiens, UniProt Q5NUL3); assay: Human GPR120 calcium flux assay, Procedure Calcium B (4200 cells/well)
T1 construct: expressed in transfected cells
T1 sequence (Q5NUL3 1-361): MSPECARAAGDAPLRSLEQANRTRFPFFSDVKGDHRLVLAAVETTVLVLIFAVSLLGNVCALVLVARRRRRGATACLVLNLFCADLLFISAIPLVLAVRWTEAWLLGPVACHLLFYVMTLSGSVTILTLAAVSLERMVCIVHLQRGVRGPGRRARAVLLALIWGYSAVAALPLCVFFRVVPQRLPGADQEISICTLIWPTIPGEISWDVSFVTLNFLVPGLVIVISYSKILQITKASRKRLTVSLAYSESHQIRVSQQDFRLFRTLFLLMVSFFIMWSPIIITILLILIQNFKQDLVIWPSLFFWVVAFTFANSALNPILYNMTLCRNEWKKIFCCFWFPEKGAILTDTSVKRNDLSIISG
In short: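 Agonist EC50 came from a four-parameter fit of RFU (Fmax−Fmin) read over 300 s on FLIPR. Cells were HEK293 stably transfected with human GPR120 (NM_001195755.1) at 4200 per well, serum-starved 1 h and loaded with Fluo-4 NW dye with probenecid before ligand addition.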

Human GPR120 short form [2] = biological target: T1, Human GPR120 short form; assay: Human GPR120 calcium flux assay, Procedure Calcium A (2500 cells/well)
In short: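 HEK293 cells stably expressing human GPR120 short isoform (NM_001195755.1), 2500 cells/well, serum-starved 1 h at 37 °C and loaded with Fluo-4 NW plus probenecid. FLIPR fluorescence read for 300 s after compound addition; response = Fmax−Fmin. EC50 from four-parameter concentration–response fit.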

human GPR40 = biological target: T2, human GPR40 (Homo sapiens, UniProt O14842); assay: GPR40 calcium flux assay, human GPR40; conditions: HEK293 cells stably expressing GPR40; table does not say human or rat
T2 construct: expressed in transfected cells
In short: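 Cells preincubated 1 h at 37° C. in HBSS, 20 mM HEPES, 0.1% BSA, then Fluo 8 calcium dye 30 min at 37° C. and 15 min at room temperature.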

T2 sequence (O14842 whole entry): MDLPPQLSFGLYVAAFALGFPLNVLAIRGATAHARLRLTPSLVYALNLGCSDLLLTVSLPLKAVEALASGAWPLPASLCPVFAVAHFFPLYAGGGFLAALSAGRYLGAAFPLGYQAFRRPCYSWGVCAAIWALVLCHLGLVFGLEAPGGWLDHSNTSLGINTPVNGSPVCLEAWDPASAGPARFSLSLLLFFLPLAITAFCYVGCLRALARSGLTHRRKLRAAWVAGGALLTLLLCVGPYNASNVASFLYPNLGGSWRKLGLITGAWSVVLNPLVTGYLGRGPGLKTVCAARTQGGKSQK

| Structure (SMILES) | EC50 (Human GPR120 short form [1]) | EC50 (Human GPR120 short form [2]) | EC50 (human GPR40) |
| --- | --- | --- | --- |
| Cc1ccc(C2=C(COc3ccc(CCC(=O)O)c(F)c3F)CCCC2)cc1F [Compound 494, 3-[2,3-difluoro-4-[[2-(3-fluoro-4-methyl-phenyl)cyclohexen-1-yl]methoxy]phenyl]Propanoic Acid] | 37 nM | 117 nM | > 5000 nM |
| Cc1cc(CCC(=O)O)ccc1OCC1=C(c2ccc(Cl)cc2)CCCC1 [Compound 483, 3-[4-[[2-(4-chlorophenyl)cyclohexen-1-yl]methoxy]-3-methyl-phenyl]Propanoic Acid] | 52 nM | 255 nM | 3530 nM |
| Cc1ccc(C2=C(COc3ccc(CCC(=O)O)c(C)c3C)CCC2)cc1 [Compound 52, 3-[2,3-dimethyl-4-[[2-(p-tolyl)cyclopenten-1-yl]methoxy]phenyl]Propanoic Acid] | 24 nM | 173 nM | > 10000 nM |
| Cc1c(CCC(=O)O)ccc(OCC2=C(c3cccc(Cl)c3)CCC2)c1C [Compound 58, 3-[4-[[2-(3-chlorophenyl)cyclopenten-1-yl]methoxy]-2,3-dimethyl-phenyl]Propanoic Acid] | 159 nM | 546 nM | > 10000 nM |
| O=C(O)CCc1ccc(OCC2=C(c3ccc(Cl)cc3)CCCC2)c(F)c1 [Compound 511, 3-[4-[[2-(4-chlorophenyl)cyclohexen-1-yl]methoxy]-3-fluoro-phenyl]Propanoic Acid] | 35 nM | 572 nM | > 10000 nM |
| Cc1ccc(C2=C(COc3ccc(CCC(=O)O)c(C)c3C)CCCC2)cc1F [Compound 496, 3-[4-[[2-(3-fluoro-4-methyl-phenyl)cyclohexen-1-yl]methoxy]-2,3-dimethyl-phenyl]Propanoic Acid] | 81 nM | 297 nM | > 5000 nM |
| Cc1c(CCC(=O)O)ccc(OCC2=C(c3ccc(Cl)cc3)CCCC2)c1C [Compound 474, 3-[4-[[2-(4-chlorophenyl)cyclohexen-1-yl]methoxy]-2,3-dimethyl-phenyl]Propanoic Acid] | 79 nM | 428 nM | > 5000 nM |
| Cc1cc(OCC2=C(c3ccc(Cl)cc3)CCC2)ccc1CCC(=O)O [Compound 131, 3-[4-[[2-(4-chlorophenyl)cyclopenten-1-yl]methoxy]-2-methyl-phenyl]Propanoic Acid] | 118 nM | 533 nM | 1990 nM |
| O=C(O)CCc1ccc(OCC2=C(c3ccc(Cl)cc3)CCCC2)c(F)c1F [Compound 513, 3-[4-[[2-(4-chlorophenyl)cyclohexen-1-yl]methoxy]-2,3-difluoro-phenyl]Propanoic Acid] | 42 nM | 331 nM | > 5000 nM |
| CCc1ccc(C2=C(COc3ccc(CCC(=O)O)c(C)c3C)CCC2)cc1 [Compound 27, 3-(4-((2-(4-ethylphenyl)cyclopent-1-en-1-yl)methoxy)-2,3-dimethylphenyl)Propanoic Acid] | 58 nM | 256 nM | > 5000 nM |
| O=C(O)CCc1c(F)c(F)c(OCC2=C(c3ccc(Cl)cc3)CCC2)c(F)c1F [Compound 122, 3-[4-[[2-(4-chlorophenyl)cyclopenten-1-yl]methoxy]-2,3,5,6-tetrafluoro-phenyl]Propanoic Acid] | 247 nM | 453 nM | > 5000 nM |
| Cc1c(CCC(=O)O)ccc(OCC2=C(c3ccc(F)cc3)CCC2)c1C [Compound 4, 3-[4-[[2-(4-fluorophenyl)cyclopenten-1-yl]methoxy]-2,3-dimethyl-phenyl]Propanoic Acid] | 44 nM | 294 nM | > 5000 nM |
| COc1cc(F)cc(C2=C(COc3ccc(CCC(=O)O)c(C)c3C)CCC2)c1 [Compound 65, 3-[4-[[2-(3-fluoro-5-methoxy-phenyl)cyclopenten-1-yl]methoxy]-2,3-dimethyl-phenyl]Propanoic Acid] | 614 nM | 2490 nM | > 5000 nM |
| Cc1c(CCC(=O)O)ccc(OCC2=C(c3nccs3)CCC2)c1C [Compound 79, 3-[2,3-dimethyl-4-[(2-thiazol-2-ylcyclopenten-1-yl)methoxy]phenyl]Propanoic Acid] | 192 nM | 760 nM | > 5000 nM |
| O=C(O)CCc1ccc(OCC2=C(c3ccc(Cl)cc3)CCC2)c(F)c1F [Compound 70, 3-[4-[[2-(4-chlorophenyl)cyclopenten-1-yl]methoxy]-2,3-difluoro-phenyl]Propanoic Acid] | 23 nM | 344 nM | > 5000 nM |
| Cc1c(CCC(=O)O)ccc(OCC2=C(c3ccc(Cl)cc3)CCC2)c1C [Compound 15, 3-(4-((2-(4-chlorophenyl)cyclopent-1-en-1-yl)methoxy)-2,3-dimethylphenyl)Propanoic Acid] | 70 nM | 206 nM | > 5000 nM |
| Cc1c(CCC(=O)O)ccc(OCC2=C(c3ncccn3)CCC2)c1C [Compound 105, 3-[2,3-dimethyl-4-[(2-pyrimidin-2-ylcyclopenten-1-yl)methoxy]phenyl]Propanoic Acid] | 183 nM | 1630 nM | > 5000 nM |
| O=C(O)CCc1ccc(OCC2=C(c3ccc(Cl)cc3)CCCC2)c2c1CCC2 [Compound 514, 3-[7-[[2-(4-chlorophenyl)cyclohexen-1-yl]methoxy]indan-4-yl]Propanoic Acid] | 53 nM | 340 nM | > 5000 nM |
| Cc1c(CCC(=O)O)ccc(OCC2=C(c3ccc(Cl)cc3Cl)CCC2)c1C [Compound 133, 3-[4-[[2-(2,4-dichlorophenyl)cyclopenten-1-yl]methoxy]-2,3-dimethyl-phenyl]Propanoic Acid] | 344 nM | 682 nM | > 5000 nM |
| O=C(O)CCc1ccc(OCC2=C(c3ccc(Cl)cc3)CCC2)c(F)c1 [Compound 149, 3-[4-[[2-(4-chlorophenyl)cyclopenten-1-yl]methoxy]-3-fluoro-phenyl]Propanoic Acid] | 24 nM | 128 nM | > 10000 nM |
| Cc1c(CCC(=O)O)ccc(OCC2=C(c3ccccc3Br)CCC2)c1C [Compound 111, 3-[4-[[2-(2-bromophenyl)cyclopenten-1-yl]methoxy]-2,3-dimethyl-phenyl]Propanoic Acid] | 687 nM | 777 nM | > 5000 nM |
